How the values were obtained:
human islets [1] = test: Kidney subcapsular minimal mass islet transplant in Rag1 mice (Example 3); format: in vivo, immunodeficient mice (Rag1); settings: ~1000 IEQ, islets cultured 24 h with AAGP 3 mg/mL, n=4 & 5
Description: Two research-grade human islet preparations are cultured for 24 hours in the following groups: • 1) AAGP™+ supplemented islets cells; and • 2) Control (non-supplemented islets)
Islets are cultured in humidified atmosphere of 95% air and 5% CO2 at 37° C., at a density of 200 IE/mL using standard tissue culture flask. AAGP™ concentration is 3 mg/mL. After 24 h, kidney subcapsular islet transplant is performed on immunodeficient mice (Rag1) with minimal islet mass (˜1000 IEQ) to assess transplant efficacy (n=4 & 5, control and AAGP™ respectively).

[2] = system: syngeneic islet transplant; test: Syngeneic full mass islet transplant with continuous tacrolimus treatment; format: in vivo, mouse; settings: AAGP in culture media 1 hour prior to transplant; tacrolimus 1 mg/kg/day by osmotic pump
Description: FIG. 11 illustrates the post-transplant graft function in immunodefficient mice receiving minimal human islet mass (˜1000 IEQ). Islets were previously treated with AAGP™ and tracrolimus accordingly. […] The dotted line indicates graft recovery nephrectomy on day 60. B. Intraperitoneal glucose tolerance test (IPGTT) to evaluate metabolic response after receiving a glucose bolus. C. Insulin content of removed grafts after 60 days of transplant as an indication of residual islet mass. Data points represent mean±SEM adjusted per gram of tissue, (Tac− n=6, Tac+ n=3 and Tac+AAGP™ n=7), *p<0.05, **p<0.01 and ***p<0.001. D and E. Post-transplant graft function in mice receiving syngeneic full mass (˜500 IEQ) islet transplant. AAGP™ was added to the culture media 1 hour prior to transplant and tacrolimus was administered via a subcutaneous osmotic pump (implanted during the same procedure) at a continuous rate of 1 mg/kg/day. D. Pooled blood glucose profiles of animal over 40 days with clear dysfunction for Tac+ islets during the presence of Tac. Vertical dotted line indicates tacrolimus treatment cessation and marks a gradual recovery of Tac+ grafts. Horizontal continuous line at y=11 indicates the normoglycemia limit. Graft recovery nephrectomy was again performed on day 30. E. Mean time-to-euglycemia after transplant showing Tac+AAGP™ mice reversing diabetes earlier (p<0.001, log-rank, Mantel-cox test). […] These differences were not observed in the Tac+AAGP™ group.
To further support these findings a transplant experiment was performed in a syngeneic diabetic mouse transplant model with continuous treatment with tacrolimus to resemble clinical practice.
To make our experiments more clinically relevant, a new in vivo syngeneic mouse transplant model was performed, with tacrolimus as a continuous treatment by means of a subcutaneous osmotic pump. It was observed that the functional impairment of transplanted islets occurred immediately after starting administration of the CNI and lasted during the entire treatment period (7 days).

human islets [3] = test: Extracellular ROS in culture media, Acridan Lumigen PS-3 assay; format: cell-based; settings: media 24 hr after tacrolimus exposure, ± AAGP
Description: Frozen samples from all groups are utilized to determine reactive oxygen species (ROS) in the culture media, using the Acridan Lumigen™ PS-3 assay (Amershan ECL Plus kit, Fisher Scientific Inc. Ottawa, ON, Canada) (18). In this assay Acridan Lumigen™ PS-3 is excited by reactive oxygen and nitrogen species (RNS) in the presence of hydrogen peroxide, producing chemiluminescense at 430 nm. Media samples are flash-frozen with liquid nitrogen and stored until the assay is performed. CMRL culture media alone is used as a control, and results are expressed as fold-change increase compared to the control media.

mouse splenocytes = test: Allogeneic mixed lymphocyte reaction, T cell proliferation by CFSE staining; format: cell-based; settings: vs IgG control, n=4
Description: The assay measures T cell proliferative response by levels of CFSE staining.

[4] = Solubility and stability of AAGP in media; format: physicochemical
human islet cells [5] = test: Initial characterization of human islets cultured 24 hours (Example 1); format: cell-based; settings: AAGP 3 mg/mL
Description: Research-grade human islet preparations are cultured for 24 hours in the following groups: • 1) AAGP™ supplemented islets cells; and • 2) Controls (non-supplemented islets cells).
Islets are cultured in humidified atmosphere of 95% air and 5% CO2 at 37° C., at a density of 200 IE/mL using standard tissue culture flask. The AAGP™ concentration is 3 mg/mL. Several tests are conducted on day 1 post-islet isolation, including: Islet recovery, membrane integrity viability stain (Syto® EB) as well as Glucose-Stimulated Insulin Release.

human islets [6] = test: Intra-islet calcium concentration; format: cell-based; settings: Tac−, Tac+AAGP groups
Description: Various electrophysiology studies were performed on human islets to elucidate a potential mechanism of action for the AAGP™ by characterizing the CNI-related injury and its avoidance.

human islet cells [7] = test: Protection of human islets from tacrolimus toxicity (Example 2); format: cell-based; settings: AAGP 3 mg/mL
Description: Research-grade human islet preparations are cultured for 48 hours in the following groups: • 1) No tacrolimus (Tac−) treated beta islet cells; • 2) Tracrolimus (Tac+) treated beta islet cells; and • 3) Tacrolimus (Tac+) treated+AAGP™ supplementation beta islet cells.
After 48 h, tacrolimus ([…]) was added to group 2 and 3.
Islets are cultured in humidified atmosphere of 95% air and 5% CO2 at 37° C., at a density of 200 IE/mL using standard tissue culture flask. AAGP™ concentration is 3 mg/mL. Several tests are conducted on D1 post-islet isolation, including: Islet recovery, membrane integrity viability stain (Syto EB) as well as Glucose-stimulated Insulin Release.

human islets [8] = test: Glucose-stimulated insulin secretion (GSIS) perifusion assay; format: cell-based; settings: AAGP 3 mg/mL, 24 hr culture
Description: Islet secretory function is assessed by monitoring in vitro insulin secretory profile during continuous glucose stimulation, as described by Cabrera et al Cell transplantation 2008;16(10):1039-1048. This in vitro perifusion assay is a modality of continuous Glucose-Stimulated Insulin Secretion (GSIS) test to stress islets in alternating normoglycemic and hyperglycemic environment to model physiological islet response. Supernatants from the perifusion assay are collected and insulin levels are determined using a commercially available ELISA kit (Insulin ELISA kit. Mercodia Inc. Pittsburgh, PA, USA). Results are expressed as fold-change of insulin secretion compared to the low (2.8 mMol) glucose stimulation baseline, normalized for 100 IEQ.

human islets [9] = test: Viability by fluorescent membrane integrity assay (syto green/ethidium bromide); format: cell-based; settings: AAGP 3 mg/mL, 24 hr culture, vs non-supplemented control
Description: After 24 hr of culture, islets are assessed for recovery, viability and function. Recovery rate is calculated as the percentage of surviving islets after 24 hr culture in comparison to the initial count for each condition. Viability is assessed using a fluorescent membrane integrity assay with counter-stains syto green/ethidium bromide (Cedarlane Laboratories, Burlington, ON, and Sigma-Aldrich, ON) (Islet isolation for clinical transplantation. In: Shahidul. M, (ed). The islets of Langerhans. New York: Springer, 2010; Ranuncoli A, et al. Cell transplantation 2000; 9(3):409-414; Ricordi C. et al. Acta diabetologica latina 1990; 27(3):185-195; and Barnett M J et al. Cell transplantation 2004; 13(5):481-488).

Structure (SMILES): C[C@H](NC(=O)[C@H](C)NC(=O)[C@@H](N)CCCCNC(=O)C(F)(F)C1(O)O[C@H](CO)[C@H](O)[C@H](O)[C@H]1O)C(=O)O (stereo partly shown) [AAGP™]
- transplant outcome with minimal islet mass (human islets [1]): inconclusive
- graft function / period to achieve euglycemia [2]: period to achieve euglycemia was similar to the control group
- extracellular ROS (fold-increase vs control media) (human islets [3]): ameliorated
- T cell proliferation (CD8+ and CD4+) (mouse splenocytes): no significant decrease in proliferation of T cells
- solubility ([4]; all media): highly soluble in all media
- stability ([4]; compared to natural AFP): more stable
- toxicity on human islet cells (human islet cells [5]): no toxicity
- islet survival in culture (human islet cells [5]; 24 hours): seems to enhance islet survival in culture
- calcium concentration in islets (human islets [6]): neither tacrolimus nor AAGP™ affected the calcium concentration
- protection of islets exposed to tacrolimus in vitro (human islet cells [7]): protects islet exposed to tacrolimus in vitro
- insulin secretion during the second secretory phase (perifusion curves) (human islets [8]; vs control): significant increase in insulin secretion
- GSIS perifusion area under the curve (insulin release) (human islets [8]; control 75.5±0.5): 149.5±0.5
- cellular viability per membrane integrity assay (human islets [9]): no differences in cellular viability

Reference: patent US12521419B2, “Use of anti-aging glycopeptides to enhance pancreatic cell health, survival and improve transplant outcome” (Protokinetix Inc., priority 2014, dated 2026)
